Results taken from paper PMC9167309, “Multiple-reaction monitoring (MRM) LC–MS/MS quantitation of venlafaxine and its O-desmethyl metabolite for a preclinical pharmacokinetic study in rabbits” (Scientific Reports, 2022).

Columns and labels:
noradrenaline reuptake = test system: noradrenaline reuptake; design: method as in doi:10.2165/00023210-200014060-00006; conditions: cited from earlier work
dopamine reuptake = test system: dopamine reuptake; design: method as in doi:10.2165/00023210-200014060-00006; conditions: cited from earlier work
[1] = Preclinical PK study: plasma VEN and ODV after a single oral dose of ER formulations, LC-MRM-MS/MS, noncompartmental analysis; type: in vivo, New Zealand White rabbits; conditions: throughout the sampling period (36 h); after oral optimized ER tablet and RLD; above LOQ
Protocol: Four pairs (male/female) of healthy rabbits, each weighing 3–4 kg, were provided by Government Rabbit Farm, Wussan (Pattan), Kashmir. The rabbits were divided into a reference group and a test group. […] The resulting plasma samples were frozen at − 40 °C until further analysis.
The PK evaluation summarized in Table 11 was carried out by way of noncompartmental analysis (NCA) using WinNonlin 8.1 and the additional statistical computations were performed in SAS 9.4. […] The statistical assurance of bioequivalent similarity given in Table 12 was computed using analysis of variance on log-transformed PK parameters (Cmax, AUClast, and AUCINF_obs) of reference and test product.

serotonin reuptake = conditions: cited from earlier work

SMILES | inhibition of noradrenaline reuptake (noradrenaline reuptake) | inhibition of dopamine reuptake (dopamine reuptake) | plasma concentrations [1] [ng/mL] | inhibition of serotonin reuptake (serotonin reuptake)
COc1ccc(C(CN(C)C)C2(O)CCCCC2)cc1 (racemic) [VEN, (RS) 1-[2-(dimethylamino)-1-(4-methoxyphenyl)ethyl]cyclohexanol] | potent inhibitors | weakly inhibit | > 0.5 | –
CN(C)CC(c1ccc(O)cc1)C1(O)CCCCC1 (stereo not shown) [ODV, O-desmethylvenlafaxine] | potent inhibitors | weakly inhibit | > 0.5 | potent inhibitors
